Key:
[1] = system: differentiated L6-myotubes; assay: Glucose uptake screen (Biological example 1 of WO 2019/053427); format: cell-based; conditions: compound at 10 μM, activity relative to isoproterenol at 10 μM, read-out: Biological example 1 of WO 2019/053427 (GU)
Experimental: (§1) Compounds described in publications referenced and incorporated herein were screened in accordance with the procedures outlined in Biological example 1 and Biological example 2 of WO 2019/053427.
L6-myoblasts were grown in Dulbecco's Modified Eagle's Medium (DMEM) containing 1 g/L glucose supplemented with 10% fetal bovine serum (FBS), 2 mM L-glutamine, 50 U/mL penicillin, […] streptomycin and 10 mM HEPES. Cells were plated at 1x 10^5 cells per mL in 24-well plates. After reaching 90% confluence the cells were grown in medium containing 2% FBS for 7 days where upon cells differentiated into myotubes. The differentiated L6-myotubes were serum-starved overnight in medium containing 0.5% fatty-acid free BSA and stimulated with Compound A at a final concentration of 1×10^−5 M in the presence of the selective β2-adrenergic receptor antagonist ICI-118551. After 1 h 40 min the cells were washed with warm, glucose free medium twice and another portion of agonist was added to the glucose free medium. After another 20 min of incubation the cells were exposed to 50 nM ^3H-2-deoxyglucose for 10 min before washed in ice cold glucose free medium three times and lysed in 400 µl/well 0.2 M NaOH for 1 h at 60° C. The cell lysate was mixed with 4 ml scintillation buffer (Emulsifier Safe, Perkin Elmer) and the radioactivity was detected in a P-counter (Tri-Carb 4810TR, Perkin Elmer).

[2] = system: differentiated L6-myotubes; assay: cAMP production relative to isoprenaline (Biological example 2 of WO 2019/053427); format: cell-based; conditions: 0.25 h, compound at 10 μM, activity relative to isoproterenol at 10 μM
Source text: For example, the level of cAMP production induced by a given compound can be determined by reference to the amount induced by a defined concentration of that compound relative to that induced by the same concentration of a reference compound, such as isoprenaline, using techniques known to those skilled in the art (e.g. following the protocol as described in the biological examples provided in WO 2019/053427, i.e. in cells, such as differentiated L6-myotubes, having been stimulated with isoprenaline or the compound with a final concentration of 1×10^−5 M, for 15 min in stimulation buffer, such as HBSS supplemented with 1% BSA, 5 mM HEPES and 1 mM IBMX, at pH 7.4).
as §1

| Compound | Emax at 10 µM [1] | Emax at 10 µM [2] |
| --- | --- | --- |
| CC(C)(NC[C@H](O)c1cccc(F)c1)[C@H]1CC[C@H](NS(C)(=O)=O)CC1 [Compound 385, (R)-1-(m-fluorophenyl)-2-{1-methyl-1-[(1r,4R)-4-(mesylamino)cyclohexyl]ethylamino}-1-ethanol] | 50 to 75% | < 25% |
| CC(C)(C[C@H]1CC[C@H](O)CC1)NC[C@H](O)c1cccc(F)c1 [Compound 300, (R)-2-{1,1-dimethyl-2-[(1r,4R)-4-hydroxycyclohexyl]ethylamino}-1-(m-fluorophenyl)-1-ethanol] | > 75% | < 25% |
| CCCCNCC(O)c1ccncc1 (stereo not drawn) [Compound 48, 2-(butylamino)-1-(4-pyridyl)-1-ethanol] | 25 to 50% | < 25% |
| CCCCNCC(O)c1cccc(O)c1 (stereo not drawn) [Compound 15, 2-(butylamino)-1-(m-hydroxyphenyl)-1-ethanol] | 50 to 75% | < 25% |
| O[C@@H](CNCCC[C@H]1CC[C@@H](O)CC1)c1cncc(F)c1 [Compound 304, (R)-1-(5-fluoro-3-pyridyl)-2-{3-[(1s,4R)-4-hydroxycyclohexyl]propylamino}-1-ethanol] | 50 to 75% | < 25% |
| CCC[C@@H]1CC[C@H]([C@H](O)c2cccc(F)c2)N1 [Compound 58, (R)-[(2R,5R)-5-propyl-2-pyrrolidinyl](m-fluorophenyl)methanol] | > 75% | 25 to 50% |
| COC(=O)[C@H]1CC[C@H](CC(C)(C)NC[C@H](O)c2cncc(F)c2)CC1 [Compound 354, methyl (1R,4r)-4-{2-[(R)-2-(5-fluoro-3-pyridyl)-2-hydroxyethylamino]-2-methylpropyl}cyclohexanecarboxylate] | 50 to 75% | < 25% |
| CO[C@H]1CC[C@H](C[C@H]2CC[C@H]([C@H](O)c3cccc(F)c3)N2)CC1 [Compound 335, (R)-[(2R,5R)-5-{[(1r,4R)-4-methoxycyclohexyl]methyl}-2-pyrrolidinyl](m-fluorophenyl)methanol] | > 75% | < 25% |
| CC12CC(C1)[C@@H]([C@@H](O)c1ccccc1F)N2 [Compound 211, (S)-{(S)-1-methyl-2-azabicyclo[2.1.1]hex-3-yl}(o-fluorophenyl)methanol] | > 75% | < 25% |
| CC(C)(NC[C@H](O)c1cccc(F)c1)[C@H]1CC[C@H](OCc2ccccc2)CC1 [Compound 279, (R)-1-(m-fluorophenyl)-2-{1-methyl-1-[(1r,4R)-4-(benzyloxy)cyclohexyl]eth-ylamino}-1-ethanol] | 50 to 75% | < 25% |
| CCCS(=O)(=O)N[C@H]1CC[C@@H](CC(C)(C)NC[C@H](O)c2cccc(F)c2)CC1 [Compound 497, (R)-2-{1,1-dimethyl-2-[(1s,4S)-4-(propylsulfonylamino)cyclohexyl]ethylamino}-1-(m-fluorophenyl)-1-ethanol] | 50 to 75% | < 25% |
| CC(C)(C)NC[C@H](O)c1ccncc1F [Compound 108, (R)-2-(tert-butylamino)-1-(3-fluoro-4-pyridyl)-1-ethanol] | 25 to 50% | < 25% |
| CCC[C@H]1CC[C@@H]([C@H](O)c2cccc(F)c2)N1 [Compound 130] | 25 to 50% | < 25% |
| CS(=O)(=O)Nc1ccc(CC23CCC([C@@H](O)c4cccc(F)c4)(CC2)N3)cc1 [Compound 474, (S)-(m-fluorophenyl)(4-{[p-(mesylamino)phenyl]methyl}-7-azabicyclo[2.2.1]hept-1-yl)methanol] | 50 to 75% | < 25% |
| CCCCNC[C@H](O)c1csc(C(F)(F)F)n1 [Compound 72, (S)-2-(butylamino)-1-[2-(trifluoromethyl)-1,3-thiazol-4-yl]-1-ethanol] | 25 to 50% | < 25% |
| O[C@@H](c1cccc(F)c1)C12CCC(Cc3ccc(OC(F)(F)F)cc3)(CC1)N2 [Compound 500] | < 25% | < 25% |
| CO[C@H]1CC[C@H](C[C@H]2CC[C@H]([C@@H](O)c3ccccc3F)N2)CC1 [Compound 338, (S)-[(2R,5R)-5-{[(1r,4R)-4-methoxycyclohexyl]methyl}-2-pyrrolidinyl](o-fluorophenyl)methanol] | 50 to 75% | < 25% |

| Compound | Emax at 10 µM [1] | Emax at 10 µM [2] |
| --- | --- | --- |
| O[C@H](c1ccccc1F)C12CCC(CCc3cccnc3)(CC1)N2 [Compound 444, (R)-(o-fluorophenyl){4-[2-(3-pyridyl)ethyl]-7-azabicyclo[2.2.1]hept-1-yl}methanol] | > 75% | 50 to 75% |
| CNS(=O)(=O)[C@H]1CC[C@H](CC(C)(C)NC[C@H](O)c2cccc(F)c2)CC1 [Compound 476, (R)-2-{1,1-dimethyl-2-[(1r,4R)-4-(methylaminosulfonyl)cyclohexyl]ethylamino}-1-(m-fluorophenyl)-1-ethanol] | > 75% | 25 to 50% |
| CC(C)(C)NCC(O)c1ccc(O)cc1 (stereo not drawn) [Compound 4, 2-(tert-butylamino)-1-(p-hydroxyphenyl)-1-ethanol] | > 75% | 25 to 50% |
| CC(=O)N[C@H]1CC[C@@H](CC(C)(C)NC[C@@H](O)c2cccc(C#N)n2)CC1 [Compound 423, N-[(1S,4s)-4-{2-[(R)-2-(6-cyano-2-pyridyl)-2-hydroxyethylamino]-2-methylpropyl}cyclohexyl]acetamide] | < 25% | < 25% |
| CC(C)(C[C@H]1CC[C@@H](NC(=O)OC(C)(C)C)CC1)NC[C@H](O)c1cccc(C#N)n1 [Compound 414] | 50 to 75% | < 25% |
| CCCS(=O)(=O)N[C@H]1CC[C@H](CC(C)(C)NC[C@H](O)c2cccc(F)c2)CC1 [Compound 451, (R)-2-{1,1-dimethyl-2-[(1r,4R)-4-(propylsulfonylamino)cyclohexyl]ethylamino}-1-(m-fluorophenyl)-1-ethanol] | 50 to 75% | 25 to 50% |
| CC1(C)CCC[C@H]([C@@H](O)c2cccc(Cl)c2)N1 [Compound 164, (S)-[(R)-6,6-dimethyl-2-piperidyl](m-chlorophenyl)methanol] | 50 to 75% | < 25% |
| O[C@@H](CNCC[C@H]1CC[C@H](O)CC1)c1cccc(F)c1 [Compound 298, (R)-1-(m-fluorophenyl)-2-{2-[(1r,4R)-4-hydroxycyclohexyl]ethylamino}-1-ethanol] | 25 to 50% | < 25% |
| CCCCNC[C@H](O)c1ccc(O)cc1 [Compound 9, (R)-2-(butylamino)-1-(p-hydroxyphenyl)-1-ethanol] | > 75% | < 25% |
| CC(C)(C[C@H]1CC[C@H](NC(=O)c2ccccc2)CC1)NC[C@H](O)c1cccc(F)c1 [Compound 384, N-[(1R,4r)-4-{2-[(R)-2-(m-fluorophenyl)-2-hydroxyethylamino]-2-methylpropyl}cyclohexyl]benzamide] | > 75% | > 75% |
| CO[C@H]1CC[C@@H](CC(C)(C)NC[C@H](O)c2cccc(F)c2)CC1 [Compound 247, (R)-2-{1,1-dimethyl-2-[(1s,4S)-4-methoxycyclohexyl]ethyl-amino}-1-(m-fluorophenyl)-1-ethanol] | > 75% | < 25% |
| CC(C)(NC[C@H](O)c1cccc(F)c1)[C@H]1CC[C@H](N)CC1 [Compound 381, (R)-1-(m-fluorophenyl)-2-{1-methyl-1-[(1r,4R)-4-aminocyclohexyl]ethylamino}-1-ethanol] | 50 to 75% | < 25% |
| COc1ccc(C[C@@H]2CC[C@H]([C@@H](O)c3cncc(F)c3)N2)cc1 [Compound 377, (S)-{(2R,5S)-5-[(p-methoxyphenyl)methyl]-2-pyrrolidinyl}(5-fluoro-3-pyridyl)methanol] | > 75% | < 25% |
| CC12CC(C1)[C@H]([C@H](O)c1cccc(F)c1)N2 [Compound 186, (R)-{(R)-1-methyl-2-azabicyclo[2.1.1]hex-3-yl}(m-fluorophenyl)methanol] | > 75% | 50 to 75% |
| CCC[C@H](C)NC[C@H](O)c1ccc(F)cc1 [Compound 53, (R)-2-[(S)-1-methylbutylamino]-1-(p-fluorophenyl)-1-ethanol] | 50 to 75% | < 25% |
| CC(C)(NC[C@H](O)c1cccc(F)c1)[C@H]1CC[C@@H](OCC(=O)O)CC1 [Compound 408, [(1S,4s)-4-{1-[(R)-2-(m-fluorophenyl)-2-hydroxyethylamino]-1-methylethyl}cyclohexyloxy]acetic acid] | 50 to 75% | < 25% |
